Assay results as given in US10035971B2, “Method for treating algae” (STAMICARBON B.V., priority 2014, dated 2018).

How the values were obtained:
wet algae = assay: Algal cell lysis with ionic liquid and oil extraction / transesterification; format: cell-based; conditions: for recovered oil (% of the total algal oil content): wet algae 5 g, water content 85%, cell lysis 80° C. 1 h, hexane added
Procedure: Cell lysis was performed at 100° C. for 1 h. Hexane was added to favor oil separation. After centrifugation, a three phase system was obtained: an upper hydrophobic layer, containing the oil; a lower phase (solid), due to the precipitated ionic liquid conjugate (ca. 60% of the starting material), and a middle phase, containing water/methanol+conjugate acid+the cell lysis hydrophilic products.
CO2 was added under pressure. Cell lysis was performed at 100° C. for 1 h. At the end of the experiment, hexane was added to favor oil separation. After centrifugation, a two phase system was obtained: an upper hydrophobic layer, containing the oil; a lower phase, containing water, the ionic liquid and the hydrophilic algae products.
The wet algae (5 gr, water content 85%) were added to tetramethylguanidinium hydrogen sulfate (15 gr). Cell lysis was performed at 80° C. for 1 h. At the end of the experiment, hexane was added to favor oil separation. The hydrophobic phase, after hexane evaporation, was analyzed by NMR and GC-MS.
The wet algae (5 g, water content 85%) and methanol (2.5 g) were added to tetramethylguanidinium hydrogensulfate. Cell lysis was performed at 80° C. for 1 h. At the end of the experiment, hexane (5 ml) was added to favor oil separation and the eventual precipitation of the conjugate acid. […] After hexane evaporation, the recovered products were analyzed by NMR and GC.
Cell lysis was performed at 80° C. for 1 h. At the end of the experiment, hexane (5 ml) was added to favor oil separation.
Cell lysis was performed at 80° C. for 1 h. At the end of the experiment, methanol (25 ml) and hexane (5 ml) was added to favor oil separation. […] After separation of the hydrophobic layer, the added inorganic salts and water were removed by centrifugation and distillation, and the recovered liquid was again used for algae extraction. After hexane evaporation, the recovered products were analyzed by NMR and GC.
The wet algae (5 g, water content 85%) were added to 1-ethyl-3-methylimidazolium ethyl sulfate (25 gr). Cell lysis was performed at 80° C. for 1 h. At the end of the experiment, hexane (5 ml) was added to favor oil separation. […] After separation of the hydrophobic layer, water was removed from the aqueous phase and the recovered liquid was again used for algae extraction. After hexane evaporation, the recovered products were analyzed by NMR and GC.
Cell lysis was performed at 80° C. for 1 h. At the end of the experiment, hexane (5 ml) was added to favor oil separation. […] After hexane evaporation, the recovered products were analyzed by NMR and GC.

[1] = in water; cited from earlier work

## 1-ethyl-3-methylimidazolium ethyl sulfate [[EMIM] Ethyl Sulfate]
Wet algae
  recovered oil (% of the total algal oil content): 50-52%

## C1CN2CCN1CC2 [Dabco, triethylenediamine]
[1]
  pKa water: 8.8

## CN1CCCC1 [N-methylpyrrolidine]
[1]
  pKa water: 10.5

## CN(C)C(=N)N(C)C [Tetramethylguanidine (TMG), 1,1,3,3-tetramethylguanidine]
[1]
  pKa water: 15.2

## CC(=O)[O-].CCCCn1cc[n+](C)c1 [[BMIM] Acetate, 1-butyl-3-methylimidazolium acetate]
Wet algae
  recovered oil (% of the total algal oil content): 40%

## CCCC[n+]1ccn(C)c1.[Cl-] [[BMIM]Cl, 1-methyl-3-butylimidazolium chloride]
Wet algae; Example 9, procedure of Example 1, 100° C. (10 atm for TMG and DBU), IL/Algae/MeOH 5:1:1.5 (5:1 for [BMIM]Cl)
  Oil extraction (%) with respect the total algal oil content: 40-60%
Wet algae
  recovered oil (% of the total algal oil content): 40-60%
